Key:
[1] = system: ISG54 promoter activity in B16-ISG54 reporter cells; test: IFN response assay, B16-ISG54 luciferase reporter cells; assay type: cell-based, mouse; conditions: Figure 6B, in complexes with pDNA 3:24 (w:w), overnight
Procedure: The effect of the pDNA:TLR7-TLR2 polyamine molecules complexes on inducing an interferon response was examined. pDNA:TLR7-TLR2 polyamine molecules mixtures (pDNA:TLR7-TLR2 polyamine molecules ratio 3:24, w:w) in serum-free medium or 5% glucose were prepared as described above and added to IFN reporter cells. Luciferase reporter cell lines were used to assay interferon response. A plasmid containing an interferon-inducible luciferase reporter gene was introduced into mouse RAW 264.7 macrophages and mouse B16 melanoma cells, giving rise to the RAW-ISG54 and B16-ISG54 reporter cell lines respectively. Expression of the luciferase reporter gene by the plasmid is under the control of an interferon-inducible promoter (I-ISG54) comprising five interferon-stimulated response elements (ISRE) and the minimal promoter of the human ISG-54K (Interferon Stimulation of a Gene encoding a 54 kDa protein) gene. The ISG-54K gene is induced by interferon regulatory factor 3 (IRF3), which has a key involvement in […] responses (Grandvaux et al. 2002) and the minimal promoter of the human ISG-54K gene contains two ISRE sites and fully inducible by type I interferons (IFN-α and IFN-β) and interferon regulatory factors (IRFs) (Wathelet et al. 1988; Grandvaux et al. 2002).
The RAW-ISG54 and B16-ISG54 reporter cell lines were seeded onto 96 well microtiter plates at 100,000 cells per well and 75,000 cells per well respectively. […] The induced luciferase expression was assessed in the reporter cell lines using a coelenterazine-base luminescence assay reagent, the Quanti-LucTM (InvivoGen). Secreted luciferase activity was determined by bioluminescence quantification of the cell culture media using a microplate luminometer (FLUOstar OPTIMA from BMG Labtech).

[2] = system: HEK293 cells; test: Cell transfection with SEAP plasmid, HEK293; assay type: cell-based, human; conditions: Figure 5A; in complex with pVitro14 LGFP SEAP plasmid, 48 hours, SEAP reporter gene expression
Procedure: (§1) The TLR7-TLR2 molecules were tested for their ability as polyamine molecules to transport plasmid DNA (pDNA) into cells. The pVitro14 LGFP SEAP plasmid (InvivoGen) was complexed to TLR7-TLR2 polyamine molecules and to the control cationic lipid transfection agent, LyoVec™ (InvivoGen). The human HEK293 (ATCC, CRL-1573) and mouse B16-F1 melanoma (ATCC, CRL-6323) cell lines were seeded at a density of 50 000 cells/well and 20 000 cells/well respectively, in the absence or presence of different volumes of the plasmid encoding for the SEAP protein in complex with TLR7-TLR2 polyamine molecules for 48 hours at 37°C and 10% CO2. Transfection efficiency was assessed by measuring SEAP reporter gene expression: 20 µl of supernatant was sampled and mixed with 180 µl of QUANTI-Blue™ Detection (InvivoGen). In the presence of alkaline phosphatase SEAP, the color of QUANTI-Blue™ changes from pink to purple/blue. The intensity of the blue hue reflects the activity of SEAP. The levels of SEAP secretion were determined quantitatively by reading the OD at 620-655 nm using a spectrophotometer, iMark™ Microplate Reader (BIO-RAD).

[3] = system: B16-F1 cells; test: Cell transfection with SEAP plasmid, B16-F1; assay type: cell-based, mouse; conditions: Figure 5B; in complex with pVitro14 LGFP SEAP plasmid, 48 hours, SEAP reporter gene expression
Procedure: as §1

| SMILES | ability to induce an IFN response (ISG54 promoter activity) in B16-ISG54 reporter cells [1] | ability to transfect HEK293 cells [2] | ability to transfect B16-F1 cells [3] |
| --- | --- | --- | --- |
| CCCCCCCCCCCCCCCC(=O)OCC(CSC[C@H](N)C(=O)N[C@@H](COC(=O)c1ccc(Cn2c(O)nc3c(N)nc(NCCCC)nc32)cc1)C(=O)NCCCNCCCCNCCCN)OC(=O)CCCCCCCCCCCCCCC (stereo partly drawn) [CL514, (6R,9S)-6,23-diamino-9-((4-((6-amino-2-(butylamino)-8-hydroxy-9H-purin-9-yl)methyl)benzoyloxy)methyl)-7,10-dioxo-4-thia-8,11,15,20-tetraazatricosane-1,2-diyl dipalmitate] | induce an IFN response in B16-ISG54 reporter cells | transfect HEK293 cells | transfect B16-F1 cells |
| CCCCCCCCCCCCCCCC(=O)OCC(CSC[C@H](N)C(=O)N[C@@H](CCC(=O)NCCCNCCCCNCCCN)C(=O)Nc1ccc(Cn2c(O)nc3c(N)nc(NCCCC)nc32)cc1)OC(=O)CCCCCCCCCCCCCCC (stereo partly drawn) [CL527, (6R,9S)-6,25-diamino-9-(4-((6-amino-2-(butylamino)-8-hydroxy-9H-purin-9-yl)methyl)phenylcarbamoyl)-7,12-dioxo-4-thia-8,13,17,22-tetraazapentacosane-1,2-diyl dipalmitate] | induce an IFN response in B16-ISG54 reporter cells | transfect HEK293 cells | transfect B16-F1 cells |
| CCCCCCCCCCCCCCCC(=O)OCC(CSC[C@H](N)C(=O)NCCCNCCCCNCCCNC(=O)CNC(=O)c1ccc(Cn2c(O)nc3c(N)nc(NCCCC)nc32)cc1)OC(=O)CCCCCCCCCCCCCCC (stereo partly drawn) [CL553, (20R)-20-amino-1-(4-((6-amino-2-(butylamino)-8-hydroxy-9H-purin-9-yl)methyl)phenyl)-1,4,19-trioxo-22-thia-2,5,9,14,18-pentaazapentacosane-24,25-diyl dipalmitate] | induce an IFN response in B16-ISG54 reporter cells | transfect HEK293 cells | transfect B16-F1 cells |

Source: patent EP2769738B1, “Conjugated TLR7 and/or TLR8 and TLR2 polycationic agonists” (Invivogen, priority 2013, dated 2014)
